Drawing on patent US11453674B2, “Heterocyclic compound, preparation method and use thereof in medicine” (SUZHOU SINOVENT PHARMACEUTICALS CO., LTD., priority 2019, dated 2022), this text covers IC50 for 13 compounds.

In this test the target is T1, hURAT1 (Homo sapiens, UniProt Q96S37).
T1 construct: expressed in transfected cells
T1 sequence (Q96S37 1-553): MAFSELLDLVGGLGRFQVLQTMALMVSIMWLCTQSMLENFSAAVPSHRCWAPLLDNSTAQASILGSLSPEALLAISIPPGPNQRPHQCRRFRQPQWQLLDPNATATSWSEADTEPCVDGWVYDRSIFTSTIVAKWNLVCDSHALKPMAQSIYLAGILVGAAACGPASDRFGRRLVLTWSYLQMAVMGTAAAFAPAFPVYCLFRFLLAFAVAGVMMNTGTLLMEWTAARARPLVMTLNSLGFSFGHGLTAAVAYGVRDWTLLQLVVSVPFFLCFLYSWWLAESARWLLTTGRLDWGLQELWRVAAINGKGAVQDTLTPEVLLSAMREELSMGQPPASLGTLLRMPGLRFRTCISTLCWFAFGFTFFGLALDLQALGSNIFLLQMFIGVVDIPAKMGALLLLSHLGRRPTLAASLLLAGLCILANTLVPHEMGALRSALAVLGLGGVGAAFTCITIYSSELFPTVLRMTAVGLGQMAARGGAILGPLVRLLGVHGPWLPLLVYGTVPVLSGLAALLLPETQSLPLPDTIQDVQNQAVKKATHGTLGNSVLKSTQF
The test can be described thus: Inhibition of 14C-uric acid uptake by hURAT1 in HEK293-transfected cells. Format: cell-based. Conditions: HEK-293T cells stably expressing hURAT1, 14C-uric acid uptake, 5 min at 37° C. As to the method: 1. Cell Culture and Inoculation
2) When the cells covered 80% of the culture medium, the culture medium was removed. The cells were washed with PBS once, followed by digestion with pancreatin-EDTA. After detachment, the cells were added with a culture medium, exfoliated by pipetting, and centrifuged for harvesting. The harvested cells were added with a culture medium and mixed well to give a cell suspension.
3) The cell density was adjusted to 3×10^5 cells/mL, transferred into a white-wall, clear-bottom, 96-well cell culture plate with 100 μL/well, and incubated for 12-24 h.
1) A 20 mM stock solution of the compound was prepared with DMSO. Then the stock solution was diluted to a starting concentration of 2 mM with DMSO.
2) The solution was serially 4-fold diluted with DMSO from […] to the 10th concentration on a 96-well plate serving as the 100× plate, and respective quality controls were prepared.
3) The solutions in corresponding wells were 10-fold diluted with Cl-free HBSS buffer on another 96-well plate serving as the 10× plate.
4) Buffer containing 0.1 μCi/mL ^14C-uric acid, at 45 μL/well, and a 10× diluted compound, at 5 μL/well, were added to a third 96-well plate serving as the 1× plate for later use. The concentration of DMSO was 1%.
3. Uptake of ^14C-Uric Acid in Cells Stably Expressing hURAT1
1) The uptake assay was performed after the cultivated cells in 96-well plates adhered.
2) The cells were washed once with pre-heated buffer at 200 μL/well.
3) After the wells were dried, corresponding compounds (50 μL/well) and 0.1 μCi/mL ^14C-uric acid were immediately added.
4) The plate with the compound was incubated in a 37° C. incubator for 5 min.
5) 150 μL of ice-cold buffer was added to each well to terminate the uptake. Each well was washed three times with buffer. The cells were carefully washed to avoid detachment.
6) 50 μL of lysis buffer was added to each well, prior to shaking at 900 rpm on an oscillator for 5 min.
7) 150 μL of scintillation solution (Microint 40) was added to each well before shaking at 900 rpm for 5 min.
8) Finally, the microwell plate was transferred to a MicroBeta Trilux (PerkinElmer Co. Ltd.) for detection.
The data were analyzed and the IC50 of the quality controls and all test compounds on the plates were calculated using XL-fit software.

The structures appear in SMILES notation.

The IC50 is the concentration at which inhibition is half-maximal.

Take `CCc1nc2ncc(Cl)cn2c1C(=O)c1cc(Br)c(O)c(Br)c1` [Example 6, (6-chloro-2-ethylimidazo[1,2-a]pyrimidin-3-yl)(3,5-dibromo-4-hydroxyphenyl)methanone]: the IC50 was below 50 nM. As for `CCc1nc2cc(C(F)(F)F)ncn2c1C(=O)c1cc(Br)c(O)c(Br)c1` [Example 7, (3,5-dibromo-4-hydroxyphenyl)(2-ethyl-7-(trifluoromethyl)imidazo[1,2-c]pyrimidin-3-yl)methanone], the figure is 50 to 200 nM.

In turn, `CCc1nc2ncccn2c1C(=O)c1cc(Br)c(O)c(Br)c1` [Example 20, 2,6-dibromo-4-([2-ethylimidazo[1,2-a]pyrimidin-3-yl]carbonyl) phenol] showed an IC50 below 50 nM. The result for `CCc1nc2ncc(F)cn2c1C(=O)c1cc(Br)c(O)c(C#N)c1` [Example 14, 3-bromo-5-(2-ethyl-6-fluoroimidazo[1,2-a]pyrimidine-3-carbonyl)-2-hydroxybenzonitrile] reads 50 to 200 nM; that for `CCn1nc2ccc(F)cc2c1C(=O)c1cc(Br)c(O)c(Br)c1` [Example 9, (3,5-dibromo-4-hydroxyphenyl)(2-ethyl-5-fluoro-2H-indazol-3-yl) methanone], 50 to 200 nM; that for `CCc1nc2cc(Cl)ncn2c1C(=O)c1cc(Br)c(O)c(Br)c1` [Example 21, (7-chloro-2-ethylimidazo[1,2-f]pyrimidin-3-yl)(3,5-dibromo-4-hydroxyphenyl)methanone], below 50 nM.

In turn, `CCc1nc2ncc(F)cn2c1C(=O)c1cc(Br)c(O)c(C(F)(F)F)c1` [Example 18, (3-bromo-4-hydroxy-5-(trifluoromethyl)phenyl)(2-ethyl-6-fluoroimidazo[1,2-a]pyrimidin-3-yl)methanone] registered an IC50 below 50 nM. As for `CCc1nc2ncc(C(F)(F)F)cn2c1C(=O)c1cc(Br)c(O)c(Br)c1` [Example 5, (3,5-dibromo-4-hydroxyphenyl)(2-ethyl-6-(trifluoromethyl)imidazo[1,2-a]pyrimidin-3-yl)methanone], the figure is below 50 nM; as for `CCc1nc2ncccn2c1C(=O)c1cc(Br)c(O)c(C#N)c1` [Example 22, 3-bromo-5-(2-ethylimidazo[1,2-a]pyrimidine-3-carbonyl)-2-hydroxybenzonitrile], 200 to 500 nM; as for `CCc1nc2ncccn2c1C(=O)c1cc(Br)c(O)c(C(F)(F)F)c1` [Example 23, (3-bromo-4-hydroxy-5-(trifluoromethyl)phenyl)(2-ethylimidazo[1,2-a]pyrimidin-3-yl)methanone], 50 to 200 nM. The result for `CCc1nc2ncc(F)cn2c1C(=O)c1cc(Br)c(O)c(Br)c1` [Example 4, (3,5-dibromo-4-hydroxyphenyl)(2-ethyl-6-fluoroimidazo[1,2-a]pyrimidin-3-yl)methanone] reads below 50 nM; that for `CCc1nc2ncc(Br)cn2c1C(=O)c1cc(Br)c(O)c(Br)c1` [Example 3, (6-bromo-2-ethylimidazo[1,2-a]pyrimidin-3-yl)(3,5-dibromo-4-hydroxyphenyl)methanone], below 50 nM; that for `CCn1nc2ccncc2c1C(=O)c1cc(Br)c(O)c(Br)c1` [Example 16, (3,5-dibromo-4-hydroxyphenyl)(2-ethyl-2H-pyrazolo[4,3-c]pyridin-3-yl)methanone], below 50 nM.
